Experimental data as given in US7741348B2, “Bisheterocycle tandem compounds useful as antiviral agents, the uses thereof and the compositions comprising such compounds” (Shanghai Institute of Materia Medica, Chinese Academy of …, priority 2005, dated 2010).

What was measured:
[1] = test system: Vero (African green monkey kidney) cells; assay: 50% toxicity concentration in the anti-herpes virus screen (Vero cells); conditions: 50% toxity concentration, Table 3-1 (herpes virus screen, Vero cells)
hepatitis B virus (HBV) [2] = assay: HBeAg secretion in HepG2.2.15 culture supernatant (ELISA); format: cell-based; conditions: HepG2.2.15 supernatant, eighth day, read-out: HBeAg secreation IC50
Source text: (§1) Hepatitis B virus (HBV) transgenic human hepatoma carcinoma cell, HepG2.2.15 cell line, can secrete hepatitis B virus particles (containing antigen and DNA) into supernatant when being cultured.
(§2) Under action of antiviral drugs, the contents of HBsAg, HBeAg and viral DNA secreted from cells into the supernatant were detected and are compared with the contents of control groups without drugs, so that the antiviral activity of the compounds of the present invention can be measured as well as the cytotoxic effect of compounds of the present invention. The value concentration of the compounds of the present invention which caused 50% of cells dead and was measured with MTT method was CC50; and the value concentration of the compounds of the present invention which inhibited the secretion of HBsAg and HBeAg detected by ELISA method and inhibited 50% of viral DNA replication detected by fluorescent quantification PCR method was IC50.
(§3) HepG2.2.15 cells were inoculated on a 96-well plate, and the compounds of the present invention were added next day. The medium and the compound solutions of the same concentration were renewed periodically. The culture supernatants were collected on the eighth day to be detected. MTT was added to the cells on the 96-well plate, and MTT dissolving liquid was added after 4 hours to be reacted overnight. OD570 was measured next day on microplate reader. And the cytotoxicity of the compounds of the present invention to the HepG2.2.15 cells, the effect of the compounds of the present invention on the growth of the cells, and the concentration of the compound of the present invention (CC50) causing 50% of the cells dead were estimated according to the OD values.
(§4) HBsAg and HBeAg were detected with assaying kits (purchased from Sino-American biotechnological company). Samples were added to the coated strip plate, and the same amount of enzyme labeled conjugate was added, after reacting under 37° C. for 1 hour, the plate was washed 5 times. Colorant solutions A and B were added, and the reaction was stopped after 15 minutes, and OD450/630 was measured. The half inhibition rate IC50 of the sample for the HBV antigen was calculated according to the OD values.

hepatitis B virus (HBV) [3] = assay: HBV-DNA replication in HepG2.2.15 culture supernatant (fluorescent quantification PCR); format: cell-based; conditions: for IC50: HepG2.2.15 supernatant, eighth day, fluorescent quantification PCR, read-out: DNA replication IC50
Source text: as §1, §2, §3
A suitable amount of culture supernatant was added into a same volume of virus extract solution, and was boiled after mixed uniformly, then centrifuged at 10000 rpm for 5 min under room temperature. A suitable amount of supernatant was collected for PCR amplification. Five HBV-DNA standard samples were used to set a standard curve. According to the obtained viral DNA replication value, the inhibition rates of HBV-DNA replication of the compound of the present invention at different concentrations were calculated, and then the half inhibition rates of the compounds were calculated to obtain IC50. For the samples that can not be calculated for IC50 value, they can be represented by ICX and given the corresponding concentration values.

hepatitis B virus (HBV) [4] = assay: HBsAg secretion in HepG2.2.15 culture supernatant (ELISA); format: cell-based; conditions: HepG2.2.15 supernatant, eighth day, read-out: HBsAg secreation IC50
Source text: as §1, §2, §3, §4

[5] = Cytotoxicity to HepG2.2.15 cells (MTT method); format: cell-based; conditions: human, HepG2.2.15 cells (HBV-transgenic human hepatoma cells), 50% death concentration, eighth day
Source text: as §1, §2, §3

SMILES | IC50 (hepatitis B virus (HBV) [2]) [µM] | IC50 (hepatitis B virus (HBV) [4]) [µM] | CC50 [5] [µM] | IC50 (hepatitis B virus (HBV) [3]; Hepatitis B virus) [µM] | other results
Nc1nc2c(ncn2COCCO)c(=O)[nH]1 [ACV (acyclovir), acyclovir, reference compound] |  |  |  |  | TC50 [1]: >1000 µg/mL
Clc1nc(-c2cccs2)[nH]c1-c1ccccc1 [Wang260] | 130 | 71.4 | 270 |  | DNA replication IC85 (hepatitis B virus (HBV) [3]; ICX: concentration with 85% inhibition of HBV-DNA replication, IC50 not calculable): IC85 = 37 uM
Clc1nc(-c2nccs2)[nH]c1-c1ccccc1 [Wang261] | 37 | 92.4 | 123 |  | 
CCCc1[nH]c(-c2cccs2)nc1C(=O)OCC [Wang264] | 95.5 | 41.3 | 124 |  | 
CCCc1[nH]c(-c2nccs2)nc1C(=O)OCC [Wang265] | 38.8 | 131 | 548 |  | DNA replication IC44 (hepatitis B virus (HBV) [3]; ICX: concentration with 44% inhibition of HBV-DNA replication, IC50 not calculable): IC44 = 4.1 uM
CC(C)Cc1sc(-c2nccs2)nc1C(=O)O [Wang268-1] | 101 | 90 | 437 | 153 | 
CCCCc1sc(-c2nccs2)nc1C(=O)O [Wang268] | 128 | 37.2 |  |  | DNA replication IC53 (hepatitis B virus (HBV) [3]; ICX: concentration with 53% inhibition of HBV-DNA replication, IC50 not calculable): IC53 = 125 uM
CCOC(=O)c1nc(-c2cccs2)[nH]c1CC(C)C [Wang278-1] | 19 | 34.1 | 90.3 |  | DNA replication IC88 (hepatitis B virus (HBV) [3]; ICX: concentration with 88% inhibition of HBV-DNA replication, IC50 not calculable): IC88 = 1.37 uM
CCCCc1[nH]c(-c2cccs2)nc1C(=O)OCC [Wang278] | 24 | 67.3 | 153 | 4.8 | 
CCOC(=O)c1nc(-c2nccs2)[nH]c1CC(C)C [Wang279-1] | 102 | 143 | 786 |  | DNA replication IC60 (hepatitis B virus (HBV) [3]; ICX: concentration with 60% inhibition of HBV-DNA replication, IC50 not calculable): IC60 = 37 uM
COC(=O)c1nc(-c2nccs2)sc1CC(C)C [Wang282-1] | 21.7 | 67.6 |  | 2.4 | 
CCCCc1sc(-c2nccs2)nc1C(=O)OC [Wang282] | 57.3 | 58.8 | 397 | 19.4 | 
CCOC(=O)c1nc(-c2cccs2)[nH]c1-c1ccccc1 [Wang298] | 209 | 144 | 569 |  | 
O=C(O)c1nc(-c2nccs2)sc1Cc1ccccc1 [Wang302] | 83.2 |  |  | 63.1 | 
COC(=O)c1nc(-c2nccs2)sc1Cc1ccccc1 [Wang316] | 70.5 | 33.7 | 174 |  | IC20 (hepatitis B virus (HBV) [3]; Hepatitis B virus, HepG2.2.15): 31.3 µM
COC(=O)c1nc(-c2ncco2)sc1-c1ccc(F)cc1Cl [Wang338] | 22.3 | 77.6 | 200 | 6.1 | 
